Test results from ChEMBL document CHEMBL5291721, “A preclinical secondary pharmacology resource illuminates target-adverse drug reaction associations of marketed drugs” (Nat Commun, 2023).

Tests used:
[1] = molecular target: Cannabinoid receptor 1 (Homo sapiens, UniProt P21554); format: functional, cell-based
[2] = molecular target: T1, Endothelin-1 receptor (Homo sapiens, UniProt P25101)
T1 sequence (P25101 whole entry): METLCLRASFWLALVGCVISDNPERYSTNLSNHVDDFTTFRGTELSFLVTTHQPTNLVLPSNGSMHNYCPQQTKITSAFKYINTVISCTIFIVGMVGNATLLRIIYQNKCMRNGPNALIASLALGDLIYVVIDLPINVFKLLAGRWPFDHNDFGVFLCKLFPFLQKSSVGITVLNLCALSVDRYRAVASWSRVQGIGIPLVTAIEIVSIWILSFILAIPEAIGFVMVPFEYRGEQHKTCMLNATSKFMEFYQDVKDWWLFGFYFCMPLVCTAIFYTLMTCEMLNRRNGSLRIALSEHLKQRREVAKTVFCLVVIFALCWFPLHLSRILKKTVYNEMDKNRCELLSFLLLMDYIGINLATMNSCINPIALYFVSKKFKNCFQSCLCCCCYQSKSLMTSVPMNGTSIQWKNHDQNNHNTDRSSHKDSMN

[3] = molecular target: T2, Glucocorticoid receptor (Homo sapiens, UniProt P04150)
T2 sequence (P04150 whole entry): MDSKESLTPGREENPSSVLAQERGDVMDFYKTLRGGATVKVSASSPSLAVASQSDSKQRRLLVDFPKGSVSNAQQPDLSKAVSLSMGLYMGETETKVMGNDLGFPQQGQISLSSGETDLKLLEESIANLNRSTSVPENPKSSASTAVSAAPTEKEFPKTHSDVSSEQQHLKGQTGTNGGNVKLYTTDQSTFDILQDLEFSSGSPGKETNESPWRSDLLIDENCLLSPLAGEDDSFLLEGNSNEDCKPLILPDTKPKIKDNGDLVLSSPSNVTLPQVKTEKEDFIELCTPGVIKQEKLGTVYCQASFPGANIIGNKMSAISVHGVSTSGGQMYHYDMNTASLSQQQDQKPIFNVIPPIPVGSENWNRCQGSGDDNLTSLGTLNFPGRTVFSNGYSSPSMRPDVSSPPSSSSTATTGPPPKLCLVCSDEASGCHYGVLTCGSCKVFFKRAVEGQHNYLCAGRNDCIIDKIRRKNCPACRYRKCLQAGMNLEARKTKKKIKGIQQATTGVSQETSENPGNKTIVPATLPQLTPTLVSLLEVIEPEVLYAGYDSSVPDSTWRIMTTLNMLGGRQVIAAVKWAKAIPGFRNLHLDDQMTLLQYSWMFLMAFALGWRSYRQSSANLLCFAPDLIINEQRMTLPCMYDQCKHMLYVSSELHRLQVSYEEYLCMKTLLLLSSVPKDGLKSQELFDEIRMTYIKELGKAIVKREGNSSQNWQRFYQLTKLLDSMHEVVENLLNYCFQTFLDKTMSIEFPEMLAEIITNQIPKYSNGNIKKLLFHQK

[4] = molecular target: T3, Progesterone receptor (Homo sapiens, UniProt P06401); format: functional
T3 sequence (P06401 whole entry): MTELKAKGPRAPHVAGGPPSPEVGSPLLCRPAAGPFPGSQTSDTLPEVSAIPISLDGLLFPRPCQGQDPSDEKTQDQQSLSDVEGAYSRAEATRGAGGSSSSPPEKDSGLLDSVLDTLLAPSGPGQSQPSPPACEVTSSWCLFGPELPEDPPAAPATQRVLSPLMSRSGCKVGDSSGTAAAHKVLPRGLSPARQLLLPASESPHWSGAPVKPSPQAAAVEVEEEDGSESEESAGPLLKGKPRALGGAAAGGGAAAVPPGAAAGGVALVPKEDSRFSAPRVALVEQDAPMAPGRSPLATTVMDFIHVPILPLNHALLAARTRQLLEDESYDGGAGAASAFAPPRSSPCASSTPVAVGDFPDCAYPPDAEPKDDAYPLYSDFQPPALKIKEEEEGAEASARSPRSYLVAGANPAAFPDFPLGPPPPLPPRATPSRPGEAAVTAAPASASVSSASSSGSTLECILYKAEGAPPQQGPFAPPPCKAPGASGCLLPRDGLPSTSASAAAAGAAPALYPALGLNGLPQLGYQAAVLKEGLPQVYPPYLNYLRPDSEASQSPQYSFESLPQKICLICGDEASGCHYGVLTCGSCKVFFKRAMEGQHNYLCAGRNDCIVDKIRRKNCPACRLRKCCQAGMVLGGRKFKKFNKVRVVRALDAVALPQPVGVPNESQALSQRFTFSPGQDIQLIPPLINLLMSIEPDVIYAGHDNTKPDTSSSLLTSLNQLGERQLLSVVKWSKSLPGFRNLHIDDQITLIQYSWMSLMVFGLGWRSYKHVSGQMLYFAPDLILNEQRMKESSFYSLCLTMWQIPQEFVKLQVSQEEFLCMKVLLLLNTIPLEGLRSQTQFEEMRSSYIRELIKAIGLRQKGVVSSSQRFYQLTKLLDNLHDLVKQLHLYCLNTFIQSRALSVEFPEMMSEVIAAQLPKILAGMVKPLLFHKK

[5] = molecular target: T4, Amine oxidase [flavin-containing] A (Homo sapiens, UniProt P21397); format: functional
T4 sequence (P21397 whole entry): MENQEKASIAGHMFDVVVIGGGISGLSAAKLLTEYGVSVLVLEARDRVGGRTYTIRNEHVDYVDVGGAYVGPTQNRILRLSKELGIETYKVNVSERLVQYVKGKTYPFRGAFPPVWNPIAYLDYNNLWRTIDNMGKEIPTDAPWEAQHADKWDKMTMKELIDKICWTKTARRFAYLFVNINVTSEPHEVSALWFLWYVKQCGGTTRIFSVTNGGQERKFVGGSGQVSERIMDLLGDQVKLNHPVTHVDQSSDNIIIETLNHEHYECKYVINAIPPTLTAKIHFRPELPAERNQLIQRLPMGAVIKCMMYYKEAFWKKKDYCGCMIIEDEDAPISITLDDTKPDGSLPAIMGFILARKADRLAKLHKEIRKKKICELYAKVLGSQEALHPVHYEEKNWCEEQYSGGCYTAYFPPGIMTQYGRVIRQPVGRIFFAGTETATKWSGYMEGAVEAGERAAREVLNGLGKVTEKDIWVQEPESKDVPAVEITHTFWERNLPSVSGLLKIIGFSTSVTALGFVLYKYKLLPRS

[6] = molecular target: cGMP-inhibited 3',5'-cyclic phosphodiesterase 3A (Homo sapiens, UniProt Q14432); format: functional
cGMP-inhibited 3',5'-cyclic phosphodiesterase 3A, sequence (Q14432 whole entry): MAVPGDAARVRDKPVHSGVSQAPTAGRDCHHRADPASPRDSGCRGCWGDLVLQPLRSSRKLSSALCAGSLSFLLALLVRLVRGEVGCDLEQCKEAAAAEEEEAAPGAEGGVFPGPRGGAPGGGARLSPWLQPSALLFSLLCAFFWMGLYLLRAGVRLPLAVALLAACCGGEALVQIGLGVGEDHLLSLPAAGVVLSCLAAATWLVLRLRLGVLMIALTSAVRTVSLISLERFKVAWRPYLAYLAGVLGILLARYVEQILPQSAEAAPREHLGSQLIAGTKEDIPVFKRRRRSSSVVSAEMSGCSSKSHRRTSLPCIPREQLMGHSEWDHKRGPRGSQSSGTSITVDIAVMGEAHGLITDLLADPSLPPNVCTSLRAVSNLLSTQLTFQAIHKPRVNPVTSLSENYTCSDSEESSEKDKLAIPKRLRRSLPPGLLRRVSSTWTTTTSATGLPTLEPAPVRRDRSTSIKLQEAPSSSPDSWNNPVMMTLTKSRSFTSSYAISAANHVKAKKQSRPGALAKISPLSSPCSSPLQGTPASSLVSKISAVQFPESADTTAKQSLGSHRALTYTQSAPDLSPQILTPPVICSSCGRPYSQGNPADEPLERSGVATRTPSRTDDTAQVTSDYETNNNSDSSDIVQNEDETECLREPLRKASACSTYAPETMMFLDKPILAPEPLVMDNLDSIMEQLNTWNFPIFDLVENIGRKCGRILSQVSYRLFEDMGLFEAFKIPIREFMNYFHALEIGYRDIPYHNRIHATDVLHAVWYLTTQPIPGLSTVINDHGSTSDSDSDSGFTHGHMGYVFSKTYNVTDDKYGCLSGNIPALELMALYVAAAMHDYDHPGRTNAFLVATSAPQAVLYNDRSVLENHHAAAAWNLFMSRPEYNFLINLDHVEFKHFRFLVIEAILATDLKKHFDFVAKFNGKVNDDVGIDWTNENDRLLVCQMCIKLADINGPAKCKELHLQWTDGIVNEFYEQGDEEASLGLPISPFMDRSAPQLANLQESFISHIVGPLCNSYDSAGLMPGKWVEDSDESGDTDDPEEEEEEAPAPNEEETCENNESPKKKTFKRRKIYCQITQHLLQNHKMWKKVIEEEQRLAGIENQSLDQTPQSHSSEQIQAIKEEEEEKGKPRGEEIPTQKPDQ

[7] = molecular target: Histamine H1 receptor (Homo sapiens, UniProt P35367)
Histamine H1 receptor, sequence (P35367 whole entry): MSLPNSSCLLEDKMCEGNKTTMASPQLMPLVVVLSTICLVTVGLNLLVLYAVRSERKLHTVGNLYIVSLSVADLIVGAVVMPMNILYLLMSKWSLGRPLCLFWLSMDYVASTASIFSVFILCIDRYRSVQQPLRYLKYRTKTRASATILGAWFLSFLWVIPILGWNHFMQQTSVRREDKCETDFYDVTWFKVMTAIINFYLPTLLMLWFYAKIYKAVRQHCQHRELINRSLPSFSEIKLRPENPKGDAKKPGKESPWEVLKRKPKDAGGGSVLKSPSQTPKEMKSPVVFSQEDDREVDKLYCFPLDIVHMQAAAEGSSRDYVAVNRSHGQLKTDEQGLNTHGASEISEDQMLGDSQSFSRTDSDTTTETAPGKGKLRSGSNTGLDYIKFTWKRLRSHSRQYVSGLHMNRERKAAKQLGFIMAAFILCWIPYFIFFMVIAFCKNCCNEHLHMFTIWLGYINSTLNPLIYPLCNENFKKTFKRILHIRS
Also: assay procedure not described here.

Cannabinoid receptor 1, sequence (P21554 whole entry): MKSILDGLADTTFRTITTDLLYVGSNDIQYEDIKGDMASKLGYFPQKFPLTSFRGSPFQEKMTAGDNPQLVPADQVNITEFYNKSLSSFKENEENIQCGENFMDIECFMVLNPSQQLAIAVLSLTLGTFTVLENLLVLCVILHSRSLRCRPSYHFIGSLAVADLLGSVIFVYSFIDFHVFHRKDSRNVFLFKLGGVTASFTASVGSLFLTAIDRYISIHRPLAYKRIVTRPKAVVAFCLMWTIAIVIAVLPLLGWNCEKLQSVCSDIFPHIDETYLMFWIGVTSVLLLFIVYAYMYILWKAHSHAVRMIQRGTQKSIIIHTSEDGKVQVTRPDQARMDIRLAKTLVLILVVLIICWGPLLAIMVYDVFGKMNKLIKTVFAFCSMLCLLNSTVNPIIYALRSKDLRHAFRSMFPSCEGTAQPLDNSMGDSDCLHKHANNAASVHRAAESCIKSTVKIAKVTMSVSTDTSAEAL

Row | SMILES | AC50 [1] [µM] | AC50 [2] [µM] | AC50 [3] [µM] | AC50 [4] [µM] | AC50 [5] [µM] | AC50 [6] [µM] | AC50 [7] [µM]
1 | Cc1cc2c(OCC(CNC(C)(C)C)OC(=O)c3ccccc3)cccc2[nH]1 (configuration not stated) [BOPINDOLOL] | > 30 | > 30 | > 30 | > 30 | > 30 | > 30 | –
2 | COc1c(C)c2c(c(O)c1C/C=C(\C)CCC(=O)OCCN1CCOCC1)C(=O)OC2 [MYCOPHENOLATE MOFETIL] | > 30 | > 30 | > 30 | > 30 | > 30 | 17 | –
3 | CCC1(C2=CCCCCC2)C(=O)NC(=O)NC1=O [HEPTABARBITAL] | > 30 | – | > 10 | > 10 | > 10 | > 30 | > 10
4 | Cc1c(O)c(=O)ccn1C [DEFERIPRONE] | > 30 | > 30 | > 30 | > 30 | > 30 | > 30 | –
5 | COc1ccc2c(c1)c(CC(=O)OCC(=O)O)c(C)n2C(=O)c1ccc(Cl)cc1 [ACEMETACIN] | > 30 | > 30 | > 30 | > 30 | > 30 | > 30 | –
6 | C#CC1(OC(N)=O)CCCCC1 [ETHINAMATE] | – | – | > 10 | > 10 | > 10 | > 30 | > 10
7 | CCCCOc1cc(C(=O)NCCN(CC)CC)c2ccccc2n1 [DIBUCAINE] | > 30 | – | > 10 | > 10 | > 10 | > 30 | > 10
8 | CC1=CC(=O)c2ccccc2C1=O [MENADIONE] | – | – | > 30 | > 30 | 17 | > 30 | > 30
9 | CC[C@]1(O)C[C@@H]2CN(CCc3c([nH]c4ccccc34)[C@@](C(=O)OC)(c3cc4c(cc3OC)N(C)[C@H]3[C@@](O)(C(N)=O)[C@H](O)[C@]5(CC)C=CCN6CC[C@]43[C@@H]65)C2)C1 [VINDESINE] | – | > 30 | > 30 | > 30 | > 30 | > 30 | –
10 | Nc1nc2ccc(OC(F)(F)F)cc2s1 [RILUZOLE] | > 30 | > 30 | > 30 | > 30 | > 30 | > 30 | –
11 | CC(C)(Oc1ccc(C2CC2(Cl)Cl)cc1)C(=O)O (configuration not stated) [CIPROFIBRATE] | > 30 | > 30 | > 30 | > 30 | > 30 | > 30 | –
12 | O=C(CCCCC(=O)Nc1c(I)cc(I)c(C(=O)O)c1I)Nc1c(I)cc(I)c(C(=O)O)c1I [IODIPAMIDE] | – | – | > 10 | > 10 | > 10 | > 30 | > 10
13 | C#CCN[C@@H]1CCc2ccccc21 [RASAGILINE] | – | – | – | > 30 | – | > 30 | > 30
14 | C#CCN(C)[C@H](C)Cc1ccccc1 [SELEGILINE] | > 30 | – | > 10 | > 10 | – | > 30 | –
15 | CCCOc1ccc(C(=O)OCCN(CC)CC)cc1N [PROPARACAINE] | > 30 | > 30 | > 30 | > 30 | 11 | > 30 | –
16 | CN1C(=O)CC(=O)N(c2ccccc2)c2cc(Cl)ccc21 [CLOBAZAM] | – | – | > 10 | > 10 | > 10 | > 30 | > 10
17 | CN1CCC2=C(C1)C(c1ccccc1)c1ccccc12 (configuration not stated) [PHENINDAMINE] | – | – | > 30 | > 30 | > 10 | > 30 | 8.1
18 | Cc1cccc(C)c1NC(=O)C1CCCCN1C (configuration not stated) [MEPIVACAINE] | > 30 | > 30 | > 30 | > 30 | > 30 | > 30 | –
19 | O=C1NCCN1CCN1CCC(c2cn(-c3ccc(F)cc3)c3ccc(Cl)cc23)CC1 [SERTINDOLE] | > 30 | > 30 | – | > 30 | 22 | > 30 | –
20 | COC(=O)C1=C(C)NC(C)=C(C(=O)OC(C)C)C1c1cccc2nonc12 (configuration not stated) [ISRADIPINE] | – | – | 15.1 | > 30 | > 30 | 23 | > 30
21 | CN1CCCN=C1COC(=O)C(O)(c1ccccc1)C1CCCCC1 (configuration not stated) [OXYPHENCYCLIMINE] | – | – | > 10 | > 10 | > 10 | > 30 | 0.99
22 | CC(C)[N+](C)(CCC(C(N)=O)(c1ccccc1)c1ccccc1)C(C)C [ISOPROPAMIDE] | – | – | > 10 | > 10 | > 10 | > 30 | > 10
23 | CN1CC[C@]23CCCC[C@H]2[C@H]1Cc1ccc(O)cc13 [LEVORPHANOL] | – | – | – | > 10 | > 30 | > 30 | > 30
24 | CCCCN1CCCCC1C(=O)Nc1c(C)cccc1C (configuration not stated) [BUPIVACAINE] | > 30 | > 30 | – | > 30 | > 30 | > 30 | –
25 | CC(=O)NS(=O)(=O)c1ccc(N)cc1 [SULFACETAMIDE] | – | – | > 10 | > 10 | > 10 | > 30 | > 10
26 | CN1C(=O)CC(c2ccccc2)C1=O (configuration not stated) [PHENSUXIMIDE] | > 30 | – | > 10 | > 10 | > 10 | > 30 | > 10
27 | CN1C(=O)COc2c(C(=O)NC3CN4CCC3CC4)cc(Cl)cc21 (configuration not stated) [AZASETRON] | > 30 | > 30 | – | > 30 | > 30 | > 10 | –
